Data set [1] addresses human GLP-1 receptor (hGLP-1R) (Homo sapiens, UniProt P43220). In words: cAMP response (HTRF) in PSC-HEK-293 cells expressing human GLP-1 receptor. The format is cell-based. On the procedure: (§1) Each vial contained 1.8 ml cells. The vials were slowly frozen to −80° C. in isopropanol, and then transferred in liquid nitrogen for storage.
(§2) Prior to their use, frozen cells were thawed quickly at 37° C. and washed (5 min at 900 rpm) with 20 ml cell buffer (lx HBSS; 20 mM HEPES, with 0.1% BSA).
(§3) For measurement of cAMP generation, 5 μl cells (final 5000 cells/well) and 5 μl of test compound were added to a 384-well plate, followed by incubation for 30 min at room temperature.
(§4) The cAMP generated was determined using a kit from Cisbio Corp. based on HTRF (Homogenous Time Resolved Fluorescence). The cAMP assay was performed according to manufacturer's instructions (Cisbio).
(§5) cAMP content of cells was determined using a kit from Cisbio Corp. (cat. no. 62AM4PEC) based on HTRF (Homogenous Time Resolved Fluorescence). […] Medium was then removed and cells washed with PBS lacking calcium and magnesium, followed by proteinase treatment with accutase (Sigma-Aldrich cat. no. A6964). Detached cells were washed and resuspended in assay buffer (1×HBSS; 20 mM HEPES, 0.1% BSA, 2 mM IBMX) and cellular density determined. They were then diluted to 400000 cells/ml and 25 μl-aliquots dispensed into the wells of 96-well plates. For measurement, 25 μl of test compound in assay buffer was added to the wells, followed by incubation for 30 minutes at room temperature.
(In general: In TR-FRET formats the signal depends on donor and acceptor labels being close together.)

Data set [2] addresses T1, glucagon receptor (hGCGR) (Homo sapiens, UniProt P47871).
T1 construct: expressed in transfected cells
The experiment in a line: cAMP response (HTRF) in PSC-HEK-293 cells expressing human glucagon receptor. In kind it is cell-based. As to the method:
as §1, §2, §3, §4, §5

Data set [3] in a line: Chemical stability testing of peptides in solution (UHPLC). Conditions: 0.5 mg/mL, pH 7.3 TRIS buffer. In kind it is physicochemical. On the procedure:
For chemical stability testing, the target concentration was 0.5 mg/mL pure compound in a pH 7.3 TRIS buffer (50 mM) containing m-cresol (30 mM), sodium chloride (85 mM) and polysorbate 20 (8 μM). The solution was stored for 7 days at 4° C., or 40° C. After that time, the solution was analysed by UHPLC (Analytical UHPLC Method D).
The “% Purity” after 7 days is defined by the % Relative purity at day 7 in relation to the % Relative purity at t0 following the equation
% Purity=[(% Relative purity t7)×100)]/% Relative purity t0
The % Relative purity at t0 was calculated by dividing the peak area of the peptide at t0 by the sum of all peak areas at t0 following the equation
% Relative purity t0=[(peak area t0)×100]/sum of all peak areas t0
Likewise, the % relative purity t7 was calculated by dividing the peak are of the peptide at t7 by the sum of all peak areas at t7 following the equation
% Relative purity t7=[(peak area t7)×100]/sum of all peak areas t7
Chemical stability of peptidic compounds was assessed as described in Methods.

Where a SMILES comes first, the peptide text is derived from it. [ ]: non-standard residue; d: D form. The star is where a group is joined. DOTA = O=C(O)CN1CCN(CC(=O)O)CCN(CC(=O)*)CCN(CC(=O)O)CC1; Aib = CC(C)(N)C(=O)O Some results are limits rather than exact numbers.

As a reminder, the EC50 is the midpoint of the concentration-response curve. A lower EC50 goes with greater potency. By solubility is commonly meant the concentration that dissolves in the medium under given conditions. Higher therefore signals a readily soluble substance.

Sequence of human GLP-1 receptor (hGLP-1R) (P43220 24-463): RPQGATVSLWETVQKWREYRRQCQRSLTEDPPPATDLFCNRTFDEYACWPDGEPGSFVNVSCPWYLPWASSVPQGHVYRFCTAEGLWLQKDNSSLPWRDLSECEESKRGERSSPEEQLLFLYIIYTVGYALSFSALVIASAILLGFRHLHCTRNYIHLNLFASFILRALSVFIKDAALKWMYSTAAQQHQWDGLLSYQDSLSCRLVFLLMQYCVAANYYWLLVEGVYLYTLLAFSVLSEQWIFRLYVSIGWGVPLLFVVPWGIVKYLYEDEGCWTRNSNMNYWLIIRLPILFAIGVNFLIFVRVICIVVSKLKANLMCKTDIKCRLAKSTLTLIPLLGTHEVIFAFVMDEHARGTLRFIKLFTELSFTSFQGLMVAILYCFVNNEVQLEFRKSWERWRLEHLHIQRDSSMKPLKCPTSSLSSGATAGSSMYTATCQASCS
T1 sequence (P47871 26-477): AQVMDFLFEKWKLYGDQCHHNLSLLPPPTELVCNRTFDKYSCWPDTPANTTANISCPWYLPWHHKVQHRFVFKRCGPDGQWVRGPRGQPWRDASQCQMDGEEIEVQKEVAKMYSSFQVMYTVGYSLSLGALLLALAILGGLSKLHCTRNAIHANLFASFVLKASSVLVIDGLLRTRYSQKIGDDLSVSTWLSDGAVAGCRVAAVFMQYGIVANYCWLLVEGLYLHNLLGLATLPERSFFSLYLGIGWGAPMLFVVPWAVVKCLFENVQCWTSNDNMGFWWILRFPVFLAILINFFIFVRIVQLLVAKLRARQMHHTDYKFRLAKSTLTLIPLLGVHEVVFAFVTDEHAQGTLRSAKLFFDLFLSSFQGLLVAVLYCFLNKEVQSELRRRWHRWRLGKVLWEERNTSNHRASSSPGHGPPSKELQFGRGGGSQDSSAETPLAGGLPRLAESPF
Description for physchem: Depending on the presence of remaining material as judged by visual inspection the compounds were determined to be soluble at the target concentration in the respective buffer system.
Solubility buffer system A) 100 mM Phosphate buffer pH 7.4
Solubility buffer system B) Acetate buffer pH 4.5
Solubility buffer system C) 100 mM Histidine buffer pH 5.5
Solubility buffer system D) 10 mM Glycine pH 2.5
Solubility buffer system E) 10 mM Glycine pH 2.0
Solubility buffer system F) 50 mM TRIS buffer, 30 mM m-cresol, 85 mM sodium chloride, 8 μM polysorbate 20 pH 7.3
Peptide samples were prepared in the respective solubility buffer system and solubility was assessed as described in Methods.

As for `CC[C@H](C)[C@H](NC(=O)[C@H](CO)NC(=O)[C@H](CC(C)C)NC(=O)[C@H](CC(=O)O)NC(=O)[C@H](CO)NC(=O)[C@@H](NC(=O)[C@H](Cc1ccccc1)NC(=O)[C@@H](NC(=O)CNC(=O)[C@H](CCC(=O)O)NC(=O)C(C)(C)NC(=O)[C@@H](N)Cc1ccc(O)cc1)[C@@H](C)O)[C@@H](C)CC)C(=O)N[C@@H](C)C(=O)N[C@@H](CC(C)C)C(=O)N[C@@H](CC(=O)O)C(=O)N[C@@H](CCCNC(=N)N)C(=O)N[C@H](C(=O)N[C@@H](Cc1c[nH]cn1)C(=O)N[C@@H](CCC(N)=O)C(=O)N[C@@H](CCC(=O)O)C(=O)N[C@@H](CCC(=O)O)C(=O)N[C@@H](Cc1ccccc1)C(=O)N[C@H](C(=O)N[C@@H](CCC(=O)O)C(=O)N[C@@H](Cc1c[nH]c2ccccc12)C(=O)N[C@@H](CC(C)C)C(=O)N[C@@H](CC(C)C)C(=O)N[C@@H](C)C(=O)NCC(=O)NCC(=O)N[C@@H](CCCCNC(=O)CN1CCN(CC(=O)O)CCN(CC(=O)O)CCN(CC(=O)O)CC1)C(N)=O)[C@@H](C)CC)[C@@H](C)CC` [SEQ ID NO: 3, Y-Aib-EGTFISDLSIALDRIHQEEFIEWLLAGGK(DOTA)-NH2] (H-Y[Aib]EGTFISDLSIALDRIHQEEFIEWLLAGGK(DOTA)-NH2; N-terminus assumed), the EC50 in data set [1] and in data set [2] was > 10 nM each time. In addition, the “% Purity after 7 days” value in data set [3] (4° C.) and in data set [3] (40° C.) was >97% each time. For the same compound, the solubility is ≥ 500 µg/mL in “physchem” (10 mM glycine buffer, pH 2); ≥ 500 µg/mL in “physchem” (10 mM glycine buffer, pH 2.5); ≥ 500 µg/mL in “physchem” (100 mM histidine buffer, pH 5.5); ≥ 500 µg/mL in “physchem” (100 mM phosphate buffer, pH 7.4); < 500 µg/mL in the data set “physchem” (acetate buffer, pH 4.5); ≥ 500 µg/mL in the data set “physchem” (pH 7.3).

(Values after patent US20230127047A1, “SELECTIVE GIP RECEPTOR AGONISTS COMPRISING A CHELATING MOIETY FOR IMAGING AND THERAPY PURPOSES” (ANTAROS MEDICAL AB, priority 2020, published 2023).)
